Earlier results in US20090239812A1, “USE OF C7 SUGARS IN PREVENTION AND TREATMENT OF MYCOSES” (Laboratoires Expanscience, priority 2006, published 2009).

Test system: Ehrlich's ascites tumor cells
Settings: perseitol associated with a potassium ion; Shibuya et al. 1999

OCC(O)C(O)C(O)C(O)C(O)CO (stereo not shown) [perseitol, Perseitol]
incorporation of 3H-leucine: inhibits
